Test results: US11965041B2, “N-methylated cyclic peptides and their prodrugs” (TECHNISCHE UNIVERSITAET MUENCHEN, priority 2017, dated 2024)
Entries after “also recorded” stand apart in the source; their conditions may differ. Where two headings read alike, the source gives them in different places. One block for each compound: values may come before it. Numbered stars: 1 amine (or outer) side, 2 acyl side, 3 side chain; on linkers, the order of the positions; unused ones are H or OH. Square brackets hold non-standard residues; d marks the D form. Peptide text beside a SMILES is read from it. X3 = CCCCCCOC(=O)N=C(NCCC[C@H](C(=O)[*:2])N(C)[*:1])NC(=O)OCCCCCC; X1 = CCCCCCOC(=O)N=C(NCCC[C@@H](N[*:1])C(=O)[*:2])NC(=O)OCCCCCC; X2 = CCCCCCOC(=O)N=C(N)NCCC[C@H](N[*:1])C(=O)[*:2]; dNMeV = CN[C@@H](C(=O)O)C(C)C; NMeA = CN[C@@H](C)C(=O)O

Assays:
[1] = target: T1, human αvβ3-integrin (Homo sapiens, UniProt P05106+P06756); assay: Solid-phase integrin binding assay, αvβ3
T1 construct: purchased R&D
T1 sequence (P06756 31-992 limits assumed): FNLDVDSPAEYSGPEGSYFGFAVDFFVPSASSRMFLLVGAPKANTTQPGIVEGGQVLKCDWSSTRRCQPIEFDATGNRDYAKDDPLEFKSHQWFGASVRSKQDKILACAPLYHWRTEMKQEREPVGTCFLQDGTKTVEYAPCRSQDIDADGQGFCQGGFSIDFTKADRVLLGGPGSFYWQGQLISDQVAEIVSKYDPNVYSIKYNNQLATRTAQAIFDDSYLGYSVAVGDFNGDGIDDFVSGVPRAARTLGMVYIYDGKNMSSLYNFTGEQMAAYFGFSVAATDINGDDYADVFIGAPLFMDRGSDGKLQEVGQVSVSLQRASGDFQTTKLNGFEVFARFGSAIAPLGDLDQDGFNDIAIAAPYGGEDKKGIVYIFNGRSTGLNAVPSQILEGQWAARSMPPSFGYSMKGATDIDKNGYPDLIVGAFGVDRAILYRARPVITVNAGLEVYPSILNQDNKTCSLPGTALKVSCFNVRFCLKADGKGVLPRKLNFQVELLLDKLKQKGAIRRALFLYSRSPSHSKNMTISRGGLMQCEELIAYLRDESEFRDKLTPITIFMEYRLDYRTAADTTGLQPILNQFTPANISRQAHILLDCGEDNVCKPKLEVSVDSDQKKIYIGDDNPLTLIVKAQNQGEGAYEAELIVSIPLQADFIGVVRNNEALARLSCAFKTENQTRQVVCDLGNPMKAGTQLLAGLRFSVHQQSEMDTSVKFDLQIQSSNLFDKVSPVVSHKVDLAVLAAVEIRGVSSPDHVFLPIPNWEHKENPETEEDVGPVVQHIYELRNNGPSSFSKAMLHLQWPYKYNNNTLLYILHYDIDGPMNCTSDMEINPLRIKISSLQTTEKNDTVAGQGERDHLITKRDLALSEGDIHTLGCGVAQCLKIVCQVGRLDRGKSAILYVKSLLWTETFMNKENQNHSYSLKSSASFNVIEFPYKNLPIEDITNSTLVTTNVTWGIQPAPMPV
T1 sequence (P05106 27-718 limits assumed): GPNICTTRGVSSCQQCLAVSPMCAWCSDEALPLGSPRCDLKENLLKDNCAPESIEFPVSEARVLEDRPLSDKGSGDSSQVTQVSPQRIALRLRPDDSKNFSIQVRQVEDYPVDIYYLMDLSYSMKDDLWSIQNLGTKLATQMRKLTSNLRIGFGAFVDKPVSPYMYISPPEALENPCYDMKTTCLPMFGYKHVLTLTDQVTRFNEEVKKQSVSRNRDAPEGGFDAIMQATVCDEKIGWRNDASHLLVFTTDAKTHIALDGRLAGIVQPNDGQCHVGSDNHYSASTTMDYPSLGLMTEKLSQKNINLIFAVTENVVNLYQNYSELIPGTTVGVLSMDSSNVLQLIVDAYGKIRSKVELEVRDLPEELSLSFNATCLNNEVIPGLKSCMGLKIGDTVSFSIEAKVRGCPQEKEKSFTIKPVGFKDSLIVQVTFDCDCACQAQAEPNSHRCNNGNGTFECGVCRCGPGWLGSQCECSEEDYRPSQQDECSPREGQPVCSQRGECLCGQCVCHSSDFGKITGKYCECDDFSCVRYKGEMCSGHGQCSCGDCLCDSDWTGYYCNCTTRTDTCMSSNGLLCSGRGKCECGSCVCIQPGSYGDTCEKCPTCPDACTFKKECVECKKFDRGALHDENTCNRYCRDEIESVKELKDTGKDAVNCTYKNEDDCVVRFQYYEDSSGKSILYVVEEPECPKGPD

[2] = Caco-2 permeability study (Examples 1, 2 and 4, Table 3); assay type: in vitro ADME, human; conditions: for Papp B→A at 150 min, 10 μg/ml / Papp A→B at 150 min, 10 μg/ml: human; for efflux ratio: Table 3
[3] = Log D, octanol/PBS distribution coefficient; conditions: for logD at 1 h: pH 7.4, LogD
[4] = Caco-2 bidirectional permeability with or without verapamil (Example 6); conditions: human, 90 min, without verapamil; for Papp A→B at 90 min, 10 μM: Caco-2, pH 7.4, Papp (AB); for Papp B→A at 90 min, 10 μM: Caco-2, pH 7.4, Papp (BA)
[5] = tested on: Caco-2 cells; assay: as above
[6] = pH 7.4, LogD
[7] = for Papp A→B: Caco-2, Papp (AB); for Papp B→A: Caco-2, Papp (BA)
[8] = in vitro; conditions: human, Caco-2, pH 7.4
[9] = Metabolic stability in rat plasma; assay type: in vitro ADME; conditions: 37° C., up to 90 minutes
Method: The enzymatic reactions were performed as follows: 2 mM stock solutions of the tested compounds were diluted with serum or purified brush border membrane vesicles (BBMVs) solution to a final concentration of 0.5 mM. During incubation at 37° C. samples were taken for a period of 90 minutes. The enzymatic reaction was stopped by adding 1:1 v/v of ice cold acetonitrile and centrifuge (4000 g, 10 min) before analysis. Preparation of BBMVs: The BBMVs was prepared from combined duodenum, jejunum, and upper ileum (male Wistar rats) by a Ca^++ precipitation method. Purification of the BBMVs was assayed using GGT, LAP and alkaline phosphatase as membrane enzyme markers
Peptides 12 and 12p were subjected to rat plasma and followed their degradation. Rat plasma is known to be rich with esterases.

[10] = Pharmacokinetic study in rats after oral administration; assay type: in vivo, Wistar rats; conditions: rat, oral 5 mg/kg; peptide 12 measured in plasma; 12P given as dispersed 12P SNEDDS
Method: In Vivo Studies. Male Wistar rats (Harlan, Israel), 275-300 g in weight, were used for all surgical procedures. Animals were anesthetized for the period of surgery by intraperitoneal injection of 1 mL/kg of ketamine/xylazine solution (9:1), placed on a heated surface, and maintained at 37° C. (Harvard Apparatus Inc., Holliston, MA). An indwelling cannula was placed in the right jugular vein of each animal for systemic blood sampling, by a method described before. The cannula was tunneled beneath the skin and exteriorized at the dorsal part of the neck. After completion of the surgical procedure, the animals were transferred to cages to recover overnight (12-18 h). During this recovery period, food but not water was deprived. Throughout the experiment, free access to food was available 4 h post oral administration. Animals were randomly assigned to the different experimental groups. […] Dispersed 12P SNEDDS (5 mg/kg) was administered to the animals by oral gavage (n=3). Systemic blood samples (0.35 mL) were taken at 5 min predose, 20, 40, 60, 90, 180, 240, and 360 min postdose. To prevent dehydration, equal volumes of physiological solution were administered to the rats following each withdrawal of blood sample. Plasma was separated by centrifugation (5322 g, 10 min) and stored at −20° C. pending analysis. In the 12P pharmacokinetic study, the parent peptide, 12, was analytically determined.
Pharmacokinetic Analysis. The area under the plasma concentration-time curve (AUC) was calculated by using the trapezoidal rule with extrapolation to infinity by dividing the last measured concentration by the elimination rate constant (kel). The elimination rate constant values were determined by a linear regression analysis using the last points on the logarithmic plot of the plasma concentration versus the time curve. Pharmacokinetic parameters, such Tmax, Cmax, clearance (CL), volume of distribution (V), and bioavailability, were calculated using noncompartmental analysis.
Analytical Methods. Plasma or BBMV samples were spiked with metoprolol (1.5 μg/mL) as an internal standard. ACN was added to each sample (2:1) and vortex-mixed for 1 min. The samples were then centrifuged (14 635 g, 10 min), and the supernatant was transferred to fresh glass tubes and evaporated to dryness (Vacuum Evaporation System, Labconco, Kansas City, MO, USA). Then, the glass tubes were reconstituted in 80 μL of mobile phase and centrifuged a second time (14 635 g, 10 min). The amount of the compounds was determined using an HPLC-MS Waters 2695 Separation Module, equipped with a Micromass ZQ detector. The resulting solution was injected (10 μL) into the HPLC system. The system was conditioned as follows: for parent drug peptides (including 12), a Kinetex 2.6 μm HILIC 100 Å, 100 mm×2.1 mm column (Phenomenex, Torrance, CA, USA), an isocratic mobile phase, and an acetonitrile:water:ammonium acetate buffer 50 mM (70:10:20, v/v/v) was used; and for the prodrug peptides (including 12P), a Luna (Phenomenex) 3 μm C8 100 Å, 100 mm×2.0 mm column and an isocratic mobile phase of ACN:water supplemented with 0.1% formic acid (70:30, v/v) and a flow rate of 0.2 mL/min at 25° C. was used. The limit of quantification for all of the peptides and prodrugs was 25 ng/mL.
The pharmacokinetic in-vivo study allows a further evaluation of the prodrug concept in the whole animal. The PK studies were performed in conscious Wistar male rats. An indwelling cannula was implanted in the jugular vein 24 hours before the PK experiment to allow full recovery of the animals from the surgical procedure. Animals (n=4) received either an IV bolus dose or oral dose of the investigated compound. Blood samples (with heparin, 15 U/ml) were collected at several time points for up to 6 hours post administration and was assayed by HPLC-MS method. Non-compartmental pharmacokinetic analysis was performed using WinNonlin software.

[11] = Caco-2, Table 3, n = 3, read-out: Papp AB
[12] = pH 7.4, reported value (mean or bound)
[13] = Caco-2, Table 3, n = 3, read-out: Papp BA

SMILES: CC(C)[C@@H]1C(=O)N[C@@H](CCCNC(=N)N)C(=O)NCC(=O)N[C@@H](CC(=O)O)C(=O)N[C@@H](C)C(=O)N(C)[C@@H](C)C(=O)N1C [Peptide 29, c(*vRGDA*A)]
- affinity for αvβ3, in words [1]: subnanomolar affinity; also recorded: subnanomolar IC50
- Papp B→A at 150 min, 10 μg/ml ([2]; Caco-2, Table 3, n = 3): 0.15 ± 0.01 ×10⁻⁶ cm/s
- Papp A→B at 150 min, 10 μg/ml [2, 11]: 0.07 ± 0.01 ×10⁻⁶ cm/s
- LogD, pH 7.4, reported value (mean or bound) ([3]; octanol/PBS pH 7.4): <−1
- logD at 1 h ([3]; pH 7.4, reported value (mean or bound), octanol/PBS pH 7.4): < -1
- logD at 1 h ([3]; pH 7.4, single determinations, octanol/PBS pH 7.4, triplicate values): -1.75
- Papp A→B at 90 min, 10 μM ([4]; Mean, 10 μM): 0.7 ×10⁻⁶ cm/s
- Papp A→B at 90 min, 10 μM ([4]; replicate 1, 10 μM): 1 ×10⁻⁶ cm/s
- Papp A→B at 90 min, 10 μM ([4]; replicate 2, 10 μM): 0.2 ×10⁻⁶ cm/s
- Papp A→B at 90 min, 10 μM ([4]; replicate 3, 10 μM): 0.9 ×10⁻⁶ cm/s
- Papp B→A at 90 min, 10 μM ([4]; Mean, 10 μM): 0.3 ×10⁻⁶ cm/s
- Papp B→A at 90 min, 10 μM ([4]; replicate 1, 10 μM): 0.3 ×10⁻⁶ cm/s
- Papp B→A at 90 min, 10 μM ([4]; replicate 2, 10 μM): 0.4 ×10⁻⁶ cm/s
- Papp B→A at 90 min, 10 μM ([4]; replicate 3, 10 μM): 0.2 ×10⁻⁶ cm/s
- Net efflux (Papp (BA) / Papp (AB)), in the presence of Verapamil ([5]; verapamil 100 μM): 0.1
- Net efflux (Papp (BA) / Papp (AB)) ([5]; without verapamil): 0.4

- logD [6, 12]: 3.95
- logD ([6]; pH 7.4, single determinations): 3.76
- Papp A→B ([7]; Mean): 0.3 ×10⁻⁶ cm/s
- Papp A→B ([7]; replicate 1): 0.6 ×10⁻⁶ cm/s
- Papp A→B ([7]; replicate 2): 0.2 ×10⁻⁶ cm/s
- Papp A→B ([7]; replicate 3): 0.2 ×10⁻⁶ cm/s
- Papp B→A ([7]; Mean): 0.3 ×10⁻⁶ cm/s
- Papp B→A ([7]; replicate 1): 0.4 ×10⁻⁶ cm/s
- Papp B→A ([7]; replicate 2): 0.3 ×10⁻⁶ cm/s
- Papp B→A ([7]; replicate 3): 0.3 ×10⁻⁶ cm/s
- Permeability, replicate 1 (PAMPA, pH 7.4): Outlier −8.1 Log10[10^−6 cm/s]
- efflux ratio at 90 min, 10 µM [8]: 1.1
SMILES: CCCCCCOC(=O)N=C(NCCC[C@@H]1NC(=O)[C@H](C(C)C)N(C)C(=O)[C@@H](Cc2ccccc2)NC(=O)[C@H](CC(=O)OC)NC(=O)CNC1=O)NC(=O)OCCCCCC [Cil.-P, c(f*VR(Hoc)2GD)]

SMILES: C[C@@H]1NC(=O)[C@H](CC(=O)O)NC(=O)CNC(=O)[C@H](CCCNC(=N)N)NC(=O)[C@@H](Cc2ccccc2)N(C)C(=O)[C@H](C)N(C)C1=O [Peptide 30, c(*fRGDA*A)]
- affinity for αvβ3, in words [1]: subnanomolar affinity
- IC50 ([1]; Table 1): 0.6 ± 0.2 nM

SMILES: C[C@@H]1NC(=O)[C@H](CC(=O)O)NC(=O)CNC(=O)[C@H](CCCNC(=N)N)NC(=O)[C@@H](C)N(C)C(=O)[C@H](C)N(C)C1=O [Peptide 12, c(*aRGDA*A)]
- Papp B→A at 150 min, 10 μg/ml ([2]; Caco-2, Table 3, n = 3): 0.12 ± 0.01 ×10⁻⁶ cm/s
- Papp A→B at 150 min, 10 μg/ml [2, 11]: 0.04 ± 0.02 ×10⁻⁶ cm/s
- metabolic stability in rat plasma, in words [9]: remained stable
- Kel [10]: 0.04 ± 0.005 min⁻¹

SMILES: C[C@@H]1NC(=O)[C@H](CC(=O)O)NC(=O)CNC(=O)[C@@H](CCCNC(=N)N)NC(=O)[C@H](C)N(C)C(=O)[C@H](C)N(C)C1=O [Peptide 23, c(rGDA*A*A)]
- Papp B→A at 150 min, 10 μg/ml ([2]; Caco-2, Table 3, n = 3): 1.34 ± 0.03 ×10⁻⁶ cm/s
- Papp A→B at 150 min, 10 μg/ml [2, 11]: 0.61 ± 0.09 ×10⁻⁶ cm/s

- logD [6, 12]: 1.85
- logD ([6]; pH 7.4, single determinations): 1.91
- Papp A→B ([7]; Mean): 0.3 ×10⁻⁶ cm/s
- Papp A→B ([7]; replicate 1): 0.3 ×10⁻⁶ cm/s
- Papp A→B ([7]; replicate 2): 0.3 ×10⁻⁶ cm/s
- Papp A→B ([7]; replicate 3): 0.2 ×10⁻⁶ cm/s
- Papp B→A ([7]; Mean): 0.3 ×10⁻⁶ cm/s
- Papp B→A ([7]; replicate 1): 0.2 ×10⁻⁶ cm/s
- Papp B→A ([7]; replicate 2): 0.2 ×10⁻⁶ cm/s
- Papp B→A ([7]; replicate 3): 0.3 ×10⁻⁶ cm/s
- permeability in the PAMPA-GIT model system: low permeability
- efflux ratio at 90 min, 10 µM [8]: 1
SMILES: CCCCCCOC(=O)N=C(N)NCCC[C@@H]1NC(=O)[C@@H](C(C)C)N(C)C(=O)[C@H](C)N(C)C(=O)[C@H](C)NC(=O)[C@H](CC(=O)OC)NC(=O)CNC1=O [#29P-Hoc] (cyclo(A[NMeA][dNMeV][X2]GD(OMe)))

SMILES: C[C@@H]1NC(=O)[C@H](C)N(C)C(=O)[C@H](C)NC(=O)[C@H](CC(=O)O)NC(=O)CNC(=O)[C@@H](CCCNC(=N)N)N(C)C1=O [Peptide 5, c(*rGDA*AA)]
- Papp A→B at 150 min, 10 μg/ml ([2]; Caco-2, running text, unit inferred, read-out: Caco-2 A-to-B Papp): 0.3 ×10⁻⁶ cm/s
- Papp B→A at 150 min, 10 μg/ml ([2]; Caco-2, Table 3, n = 3): 0.42 ± 0.11 ×10⁻⁶ cm/s
- Papp A→B at 150 min, 10 μg/ml [2, 11]: 0.38 ± 0.01 ×10⁻⁶ cm/s

- Papp A→B [2, 11]: 1.77 ± 0.55 ×10⁻⁶ cm/s
- Papp B→A [2, 13]: 74.8 ± 20.4 ×10⁻⁶ cm/s
- efflux ratio ([2]; Caco-2): 42.2
SMILES: CCCCCCOC(=O)N=C(NCCC[C@H]1NC(=O)[C@H](C)N(C)C(=O)[C@H](C)N(C)C(=O)[C@H](C)NC(=O)[C@H](CC(=O)OC)NC(=O)CNC1=O)NC(=O)OCCCCCC [Peptide 23P, c(r(Hoc)2GD(OMe)A*A*A)] (cyclo(A[NMeA][NMeA][X1]GD(OMe)))

- Papp B→A [2, 13]: 22.1 ± 3.58 ×10⁻⁶ cm/s
- Papp B→A ([2]; Caco-2, running text, unit inferred, read-out: Caco-2 B-to-A Papp): 21.2 ×10⁻⁶ cm/s
- Papp A→B ([2]; Caco-2, unit inferred, read-out: Caco-2 A-to-B Papp (converted)): 0.6 ×10⁻⁶ cm/s
- efflux ratio ([2]; Caco-2): 36.7
SMILES: CCCCCCOC(=O)N=C(NCCC[C@@H]1C(=O)NCC(=O)N[C@@H](CC(=O)OC)C(=O)N[C@@H](C)C(=O)N(C)[C@@H](C)C(=O)N[C@@H](C)C(=O)N1C)NC(=O)OCCCCCC [Peptide 5P, c(*r(Hoc)2GD(OMe)A*AA)] (cyclo(A[NMeA]A[X3]GD(OMe)))
